In paper PMC6381024, “Probing Anti-inflammatory Properties Independent of NF-κB Through Conformational Constraint of Peptide-Based Interleukin-1 Receptor Biased Ligands” (Frontiers in Chemistry, 2019):

What was measured:
p38 MAPK = test: IL-1β-induced p38 MAPK phosphorylation, Western blot in RAW Blue cells; type: cell-based; parameters: key to Western Blot p38 (heatmap grade of inhibition): 0: No effect; No effect 01234 Maximum inhibition/efficacy; No effect 01234 Maximum inhibition/efficacy; No effect 01234 Maximum inhibition/efficacy; 4: Maximum inhibition/efficacy; details: for Western Blot p38 (heatmap grade of inhibition): RAW Blue cells, peptide 10^-6 M or Kineret 1.0 mg/mL 30 min, then IL-1β 100 ng/mL 15 min; for Inhibition of IL-1β-induced p38 phosphorylation: RAW-blue cells, 10^-6 M, 30 min, then IL-1β 15 min
Description: RAW Blue cells (Invivogen) were grown under standard conditions (37°C, 5% CO2) and maintained under passage number 15. Cells were equilibrated with 1, 5, or 6 (10^−6M) or Kineret (1.0 mg/mL) for 30 min, after which time they were exposed to IL-1β (100 ng/mL) for 15 min. Cells were harvested and lysed on ice for 30 min using a radioimmunoprecipitation assay buffer (Cell Signaling) supplemented with 1 mM phenylmethylsulfonyl fluoride (PMSF) and cOmplete™ EDTA-free protease inhibitor cocktail (Roche, Mannheim, Germany, prepared according to the manufacturer's instructions). Protein concentrations were determined using a Bradford protein assay (Bio-Rad) on 96-well plates with a microplate reader (EnVision Multilabel reader) measuring OD at […]. Bovine serum albumin serial dilutions were used to generate a standard curve. Lysates were then mixed with 4X reducing sample buffer (Bio-Rad).
Lysates were loaded (30 μg protein per well) in a 5% acrylamide stacking gel, and samples were electrophoresed in a 12% acrylamide resolving gel for 1.5 h at 120 V, followed by a 1 h transfer onto polyvinylidene difluoride (PDVF) membranes at 100 V. Membranes were blocked and incubated with 1:1,000 dilution of primary antibody and 1:20,000 dilution of secondary antibodies according to the manufacturer's instructions. Antibodies used were for phospho-p38 MAPK (Cell Signaling, #9211), p38 MAPK (Cell Signaling, #9212), SAPK/JNK (Cell Signaling, #9252), phospho-SAPK/JNK (Cell Signaling, #9251), ROCK2 (Thermo Fisher Scientific PA5-21131), phospho-ROCK2 (Thermo Fisher Scientific PA5-34895), and goat anti-rabbit conjugated to horseradish peroxidase (Abcam, ab6721). Membranes were imaged using an Amersham Imager 600 (GE Healthcare) using Clarity Western ECL Substrate (Bio-Rad). The intensity of protein bands was quantified using ImageJ and standardized using total (phosphorylated + non-phosphorylated) protein content. Data are representative of three independent experiments.
Figure 7 The effects of peptides 1, 5, and 6 on IL-1β-induced phosphorylation of JNK, ROCK2, and p38. Graphical representations of band density analysis of Western Blots, sorted into columns based on protein of interest (JNK, ROCK2, or p38) and rows by peptide configuration [(3R-) or (3S)]. RAW-blue cells were pretreated with peptides 1, 5, 6, Kineret, or vehicle for 30 min and then stimulated with IL-1β for 15 min. Images of representative Western Blots can be found in the Supplementary Figure 1. Results shown are the average of 3 independent experiments: ^*p < 0.05, ^**p < 0.01, ^***p < 0.001, ^****p < 0.0001 compared to group treated only with IL-1β. Treatment groups that are not labeled with asterisks are statistically non-significant compared to group treated only with IL-1β.

Sprague Dawley rat pups = test: Oxygen-induced retinopathy (OIR), retinal vaso-obliteration in rat pups; type: in vivo; parameters: key to In vivo OIR (heatmap grade of efficacy): 0: No effect; No effect 01234 Maximum inhibition/efficacy; No effect 01234 Maximum inhibition/efficacy; No effect 01234 Maximum inhibition/efficacy; 4: Maximum inhibition/efficacy; details: for In vivo OIR (heatmap grade of efficacy): Sprague Dawley rat pups, 80% O2 P5-P10, Kineret 3 mg/kg/day (legend: 15 mg/kg/day), twice-daily i.p.; for In vivo OIR (heatmap grade of efficacy) / Extent of vaso-obliteration (area as percentage of total retinal area) after treatment: peptides 2 mg/kg/day; for Extent of vaso-obliteration (area as percentage of total retinal area) after treatment / Efficacy against vaso-obliteration in the OIR model: rat pups, 80% oxygen days 5 to 10; for Extent of vaso-obliteration (area as percentage of total retinal area) after treatment: Kineret 3 mg/kg/day (legend: 15 mg/kg/day) i.p., untreated ~35%; for Efficacy against vaso-obliteration in the OIR model: 2 mg/kg/day i.p.
Source text: On P5, litters were transferred to a controlled hyperoxic environment (Biospherix OxyCycler A84XOV) and maintained at 80 ± 1% O2, which is used to induce vaso-obliteration of the retinal vasculature. At this timepoint, the vasculature is immature and particularly susceptible to […] insults resulting in vaso-obliteration, a defining characteristic of the early stage of retinopathies in premature infants (Garner and Ashton, [1971]). Control litters were not exposed to hyperoxia and were kept in standard conditions with room air (21% O2). To control for the effects of hyperoxia on the lactation of the dams, dams of hyperoxic litters were switched with dams of control litters on P8.
In litters exposed to hyperoxia, pups were randomized to receive phosphate-buffered saline (PBS) vehicle, 2 mg/kg/day of peptides 1, 5, or 6 or 3 mg/kg/day of Kineret from P5 to P10. These doses were determined from our previous study (Rivera et al., [2013]) and administered in twice-daily intra-peritoneal injections titrated to 20 μL per injection with 28-gauge insulin syringes. A total of 6–8 pups were used for each treatment group.
On P10, pups were euthanized by decapitation under 2% isoflurane anesthesia. Eyes were enucleated and fixed in 4% paraformaldehyde for 1 h at room temperature before washing twice with PBS and storage at 4°C in PBS until further processing.
Under a dissecting microscope, the cornea and lens were gently removed from the eyes and remnants of the hyaloid vasculature were removed from the retinas using surgical scissors and tweezers. The retinas were gently removed from the underlying sclera/choroid complex.
Retinas were treated at room temperature for 1 h with a blocking solution consisting of 1% bovine serum albumin (BSA), 1% normal goat serum, 0.1% Triton X-100 and 0.05% Tween-20 in PBS. The retinas were then double-labeled overnight at 4°C with gentle shaking in an antibody solution consisting of 1 mM CaCl2, 1% Triton X-100, 1% TRITC-conjugated lectin cell endothelial marker from Bandeiraea simplicifolia (Sigma-Aldrich, St Louis, MO) and a 1:500 dilution of rabbit anti-ionized calcium-binding adapter molecule (Iba)-1 antibody (Wako Chemicals USA) in PBS. The retinas were then washed thrice with PBS and incubated with a secondary antibody solution consisting of 1% BSA, 0.1% Triton X-100, 0.05% Tween-20 and 1:500 Alexa-594-conjugated donkey anti-rabbit IgG (ThermoFisher Scientific, Rockford, IL) in PBS for 2 h at room temperature. Retinas were washed thrice with PBS and then flat-mounted onto glass slides with coverslips and Fluoro-Gel mounting medium (Electron Microscopy Sciences, Hatfield, PA).
For assessment of vaso-obliteration, retinas were imaged using an epifluorescence microscope at 10X magnification (Zeiss AxioImager Z2) and version 4.8 of the AxioVision software. Images were captured and stitched together using the software's MosaiX feature. Iba-1 staining was assessed with the same microscope at 20X magnification, and a total of 4 fields per retina were imaged halfway between the optic nerve and the edge of the retina.
The FIJI software was used to the quantify the area of vaso-obliteration in each retina, expressed as a percentage of the area of the whole retina. The number of Iba-1-positive cells was counted using the cell counter plug-in in FIJI, and the average of cell counts in 4 fields per retina was calculated.
Figure 10 The preventive effects of peptides 1, 5, and 6 against vaso-obliteration in an OIR model. Five-days old Sprague Dawley pups and their mothers were kept in 80% oxygen until the 10 day of life, receiving twice-daily intraperitoneal injections of peptides 1, 5, and 6 (2 mg/kg/day), Kineret (15 mg/kg/day) or PBS vehicle (each injection was titrated to a volume of 20 μL). (A) Representative retinal flatmounts stained with FITC-conjugated Bandeiraea simplicifolia lectin, taken at 10X magnification and stitched with MosaiX in Axiovision 4.8. […]

| Substance | Western Blot p38 (heatmap grade of inhibition) (p38 MAPK) | Inhibition of IL-1β-induced p38 phosphorylation (p38 MAPK) | In vivo OIR (heatmap grade of efficacy) (Sprague Dawley rat pups) | Extent of vaso-obliteration (area as percentage of total retinal area) after treatment (Sprague Dawley rat pups) | Efficacy against vaso-obliteration in the OIR model (Sprague Dawley rat pups) |
| --- | --- | --- | --- | --- | --- |
| H-D-Arg-D-Tyr-(3R,4R)-Hgl-(S)-Val-D-Glu-D-Leu-D-Ala-NH2 [[(3R,4R)-Hgl^3-(S)-Val^4]-1] | 3 |  |  |  |  |
| H-D-Arg-D-Tyr-(3R,4R)-Hgl-D-Val-D-Glu-D-Leu-D-Ala-NH2 [[(3R,4R)-Hgl^3]-1] | 0 | inactive |  |  |  |
| H-D-Arg-D-Tyr-(3R,4S)-Hgl-(S)-Val-D-Glu-D-Leu-D-Ala-NH2 [[(3R,4S)-Hgl^3-(S)-Val^4]-1] | 2 |  |  |  |  |
| H-D-Arg-D-Tyr-(3R,4S)-Hgl-D-Val-D-Glu-D-Leu-D-Ala-NH2 [[(3R,4S)-Hgl^3]-1] | 4 | inhibited most effectively | 4 | 15–25% |  |
| H-D-Arg-D-Tyr-(3S,4R)-Hgl-D-Val-D-Glu-D-Leu-D-Ala-NH2 [[(3S,4R)-Hgl^3]-1] | 3 |  | 4 | 15–25% |  |
| H-D-Arg-D-Tyr-(R)-Agl-(S)-Val-D-Glu-D-Leu-D-Ala-NH2 [[(3R)-Agl^3-(S)-Val^4]-1] | 4 | inhibited most effectively |  |  |  |
| H-D-Arg-D-Tyr-(R)-Agl-D-Val-D-Glu-D-Leu-D-Ala-NH2 [[(3R)-Agl^3]-1] | 0 | inactive | 0 |  | inactivity |
| H-D-Arg-D-Tyr-(S)-Agl-(S)-Val-D-Glu-D-Leu-D-Ala-NH2 [[(3S)-Agl^3-(S)-Val^4]-1] | 2 |  |  |  |  |
| H-D-Arg-D-Tyr-(S)-Agl-D-Val-D-Glu-D-Leu-D-Ala-NH2 [[(3S)-Agl^3]-1] | 0 | inactive | 1 |  | inactivity |
| H-D-Arg-D-Tyr-D-Thr-D-Val-D-Glu-D-Leu-D-Ala-NH2 [Peptide 1] | 4 | inhibited the effects of all three kinases | 4 | 15–20% |  |
| Kineret: FDA-approved recombinant IL-1 receptor antagonist | 4 |  | 3 | 15–20% |  |
